The results in this text go back to PubChem BioAssay (NCI).

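Grown in 96-well plates, cells were treated for 48 hours with each compound at five concentrations. Insufficient inhibition: endpoint recorded as highest concentration tested. TGI: total growth inhibition.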

For one test, the system named is CAKI-1 renal. Briefly: NCI tumour cell line growth inhibition, 48 h.
Regarding `CCCCN(CC)c1nc(C)nc2c1c(C)c(C)n2-c1c(C)cc(C)cc1C`, the TGI was determined as 30.2 µM.
Same read-out and setting: the result for `N#Cc1c(N)[nH]c(=S)c(C#N)c1-c1cccc(Cl)c1` reads above 100 µM; that for `CO[C@@H](C(=O)OC1C=CC2(CC1)C(=O)N(C)c1ccccc12)c1ccccc1` (some centres not stated), above 100 µM.

In the next test the test system is T-47D breast. Briefly: NCI tumour cell line growth inhibition, 48 h.
`CCCCN(CC)c1nc(C)nc2c1c(C)c(C)n2-c1c(C)cc(C)cc1C` came in with a TGI of 25.4 µM.
Compound `CC1C(c2cc(C(C)(C)C)c(O)c(C(C)(C)C)c2)c2cc3c(cc2OC1N1CCOCC1)OCO3` (configuration not stated) came in with a TGI above 100 µM.
Turning to `CO[C@@H](C(=O)OC1C=CC2(CC1)C(=O)N(C)c1ccccc12)c1ccccc1` (some centres not stated), the TGI was above 100 µM.

Another test concerns 786-0 renal. Briefly: NCI tumour cell line growth inhibition, 48 h.
As for `CCCCN(CC)c1nc(C)nc2c1c(C)c(C)n2-c1c(C)cc(C)cc1C`, the TGI amounted to 30.5 µM.
The compound `CC1C(c2cc(C(C)(C)C)c(O)c(C(C)(C)C)c2)c2cc3c(cc2OC1N1CCOCC1)OCO3` (configuration not stated) yielded a TGI of 27.1 µM.
Consider `N#Cc1c(N)[nH]c(=S)c(C#N)c1-c1cccc(Cl)c1`, for which the TGI turned out to be 34.2 µM.
On the same count and under the same terms, the result for `CO[C@@H](C(=O)OC1C=CC2(CC1)C(=O)N(C)c1ccccc12)c1ccccc1` (some centres not stated) reads above 100 µM.

The subject of a further test is UACC-257 melanoma. Kind of test: NCI tumour cell line growth inhibition, 48 h.
With `CCCCN(CC)c1nc(C)nc2c1c(C)c(C)n2-c1c(C)cc(C)cc1C`, the TGI is 26.9 µM.
For the compound `CC1C(c2cc(C(C)(C)C)c(O)c(C(C)(C)C)c2)c2cc3c(cc2OC1N1CCOCC1)OCO3` (configuration not stated), the TGI is above 100 µM.
As for `N#Cc1c(N)[nH]c(=S)c(C#N)c1-c1cccc(Cl)c1`, the TGI was above 100 µM.
On to `CO[C@@H](C(=O)OC1C=CC2(CC1)C(=O)N(C)c1ccccc12)c1ccccc1` (some centres not stated), for which the TGI was above 100 µM.

A further test relates to CCRF-CEM leukemia. Briefly: NCI tumour cell line growth inhibition, 48 h.
For the compound `CCCCN(CC)c1nc(C)nc2c1c(C)c(C)n2-c1c(C)cc(C)cc1C`, the TGI was 32.7 µM.
For `CC1C(c2cc(C(C)(C)C)c(O)c(C(C)(C)C)c2)c2cc3c(cc2OC1N1CCOCC1)OCO3` (configuration not stated), the TGI is above 100 µM.
The compound `CO[C@@H](C(=O)OC1C=CC2(CC1)C(=O)N(C)c1ccccc12)c1ccccc1` (some centres not stated) registered a TGI above 100 µM.

The next test has as its system K-562 leukemia. Briefly: NCI tumour cell line growth inhibition, 48 h.
As for `CCCCN(CC)c1nc(C)nc2c1c(C)c(C)n2-c1c(C)cc(C)cc1C`, the TGI came out at 29.8 µM.
The same measure, in the same setting: the result for `CC1C(c2cc(C(C)(C)C)c(O)c(C(C)(C)C)c2)c2cc3c(cc2OC1N1CCOCC1)OCO3` (configuration not stated) reads above 100 µM.
On the same count and under the same terms, then `N#Cc1c(N)[nH]c(=S)c(C#N)c1-c1cccc(Cl)c1`, with above 100 µM; and `CO[C@@H](C(=O)OC1C=CC2(CC1)C(=O)N(C)c1ccccc12)c1ccccc1` (some centres not stated), with above 100 µM.

In a further test the test system is HT29 colon. Briefly: NCI tumour cell line growth inhibition, 48 h.
`CCCCN(CC)c1nc(C)nc2c1c(C)c(C)n2-c1c(C)cc(C)cc1C` gave a TGI of 22.6 µM.
`CC1C(c2cc(C(C)(C)C)c(O)c(C(C)(C)C)c2)c2cc3c(cc2OC1N1CCOCC1)OCO3` (configuration not stated) came in with a TGI above 100 µM.
Compound `N#Cc1c(N)[nH]c(=S)c(C#N)c1-c1cccc(Cl)c1` yielded a TGI above 100 µM.
With `CO[C@@H](C(=O)OC1C=CC2(CC1)C(=O)N(C)c1ccccc12)c1ccccc1` (some centres not stated), the TGI was above 100 µM.

The subject of a further test is UACC-62 melanoma. Kind of test: NCI tumour cell line growth inhibition, 48 h.
For `CC1C(c2cc(C(C)(C)C)c(O)c(C(C)(C)C)c2)c2cc3c(cc2OC1N1CCOCC1)OCO3` (configuration not stated), the TGI turned out to be 72.9 µM.
With `N#Cc1c(N)[nH]c(=S)c(C#N)c1-c1cccc(Cl)c1`, the TGI is above 100 µM.
`CO[C@@H](C(=O)OC1C=CC2(CC1)C(=O)N(C)c1ccccc12)c1ccccc1` (some centres not stated) showed a TGI above 100 µM.

In a further test the test system is SF-539 CNS. Briefly: NCI tumour cell line growth inhibition, 48 h.
On to `CCCCN(CC)c1nc(C)nc2c1c(C)c(C)n2-c1c(C)cc(C)cc1C`, for which the TGI worked out at 6.46 µM.
On the same count and under the same terms, the result for `CC1C(c2cc(C(C)(C)C)c(O)c(C(C)(C)C)c2)c2cc3c(cc2OC1N1CCOCC1)OCO3` (configuration not stated) reads 43.7 µM; that for `N#Cc1c(N)[nH]c(=S)c(C#N)c1-c1cccc(Cl)c1`, above 100 µM.

A further test relates to SNB-19 CNS. Briefly: NCI tumour cell line growth inhibition, 48 h.
`CCCCN(CC)c1nc(C)nc2c1c(C)c(C)n2-c1c(C)cc(C)cc1C` returned a TGI of 33.3 µM.
With `CC1C(c2cc(C(C)(C)C)c(O)c(C(C)(C)C)c2)c2cc3c(cc2OC1N1CCOCC1)OCO3` (configuration not stated), the TGI was 40.5 µM.
`N#Cc1c(N)[nH]c(=S)c(C#N)c1-c1cccc(Cl)c1` yielded a TGI above 100 µM.
Consider `CO[C@@H](C(=O)OC1C=CC2(CC1)C(=O)N(C)c1ccccc12)c1ccccc1` (some centres not stated), for which the TGI is above 100 µM.

The test system of the next test is A498 renal. Briefly: NCI tumour cell line growth inhibition, 48 h.
For the compound `CCCCN(CC)c1nc(C)nc2c1c(C)c(C)n2-c1c(C)cc(C)cc1C`, the TGI amounted to 31.3 µM.
`N#Cc1c(N)[nH]c(=S)c(C#N)c1-c1cccc(Cl)c1` yielded a TGI above 100 µM.
Compound `CO[C@@H](C(=O)OC1C=CC2(CC1)C(=O)N(C)c1ccccc12)c1ccccc1` (some centres not stated) displayed a TGI above 100 µM.

A further test relates to LOX IMVI melanoma. Briefly: NCI tumour cell line growth inhibition, 48 h.
As to `CCCCN(CC)c1nc(C)nc2c1c(C)c(C)n2-c1c(C)cc(C)cc1C`, the TGI is 30.4 µM.
`CC1C(c2cc(C(C)(C)C)c(O)c(C(C)(C)C)c2)c2cc3c(cc2OC1N1CCOCC1)OCO3` (configuration not stated) yielded a TGI of 44.7 µM.
Compound `N#Cc1c(N)[nH]c(=S)c(C#N)c1-c1cccc(Cl)c1` showed a TGI above 100 µM.
The same measure, in the same setting: then `CO[C@@H](C(=O)OC1C=CC2(CC1)C(=O)N(C)c1ccccc12)c1ccccc1` (some centres not stated), with above 100 µM.

In another test the test system is HS 578T breast. Kind of test: NCI tumour cell line growth inhibition, 48 h.
As for `CCCCN(CC)c1nc(C)nc2c1c(C)c(C)n2-c1c(C)cc(C)cc1C`, the TGI is 38 µM.
As to `CC1C(c2cc(C(C)(C)C)c(O)c(C(C)(C)C)c2)c2cc3c(cc2OC1N1CCOCC1)OCO3` (configuration not stated), the TGI was 10.6 µM.
On to `N#Cc1c(N)[nH]c(=S)c(C#N)c1-c1cccc(Cl)c1`, for which the TGI worked out at 94.1 µM.

For another test, the system named is RPMI-8226 leukemia. Briefly: NCI tumour cell line growth inhibition, 48 h.
Take `CCCCN(CC)c1nc(C)nc2c1c(C)c(C)n2-c1c(C)cc(C)cc1C`: the TGI is 30.1 µM.
The same measure, in the same setting: then `CC1C(c2cc(C(C)(C)C)c(O)c(C(C)(C)C)c2)c2cc3c(cc2OC1N1CCOCC1)OCO3` (configuration not stated), with above 100 µM; and `N#Cc1c(N)[nH]c(=S)c(C#N)c1-c1cccc(Cl)c1`, with 94.5 µM.
On the same count and under the same terms, the result for `CO[C@@H](C(=O)OC1C=CC2(CC1)C(=O)N(C)c1ccccc12)c1ccccc1` (some centres not stated) reads above 100 µM.

The next test relates to HL-60(TB) leukemia. Briefly: NCI tumour cell line growth inhibition, 48 h.
`CCCCN(CC)c1nc(C)nc2c1c(C)c(C)n2-c1c(C)cc(C)cc1C`: the TGI is 19.3 µM.
Consider `N#Cc1c(N)[nH]c(=S)c(C#N)c1-c1cccc(Cl)c1`, for which the TGI is 65.2 µM.
The compound `CO[C@@H](C(=O)OC1C=CC2(CC1)C(=O)N(C)c1ccccc12)c1ccccc1` (some centres not stated) displayed a TGI of 94 µM.
